Experimental data published in patent publication US4404230A, “4-Hydroxy-1,2-Benzisothiazol-3(2H)-one-1,1-dioxides and salts thereof” (priority 1980, dated 1983).

What was measured:
[1] = test system: mice; assay: Effect on the duration of hexobarbital anesthesia in mice; type: in vivo, Chbb:NMRI-mice; details: 100 mg/kg p.o.
Procedure: According to Winter [Pharmacol. exp. Ther. 94, 7, (1948)], 100 mg/kg of substance B in a suspension of 1% tylose were administered perorally to 10 male Chbb:NMRI-mice (SPF) having a body weight of 20 to 26 gm. A control group received only the suspension agent. After 1 hour all animals were injected i.p. with 80 mg/kg of hexobarbital. The mice were put on a metal plate at 37° C. and the time from the beginning of the loss of the righting reflex until the recurrence of this reflex was measured as the duration of the anesthesia. This time difference was calculated in percent with regard to that of the control group.

[2] = test system: Salmonella typhimurium; assay: Prior serial dilution test for inhibition of microorganism growth (AMES-system); type: cell-based; details: highest dosage used
Procedure: (§1) Compound B was tested at concentrations of 0.25, 2.5, 5 and 10 mg/plate.

[3] = test system: Dog; assay: Test for acute toxicity, dog; details: for Animals which died: 2 animals
Procedure: (§2) The acute toxicity was determined after oral administration of substance B to male and female mice, rats and dogs. The substance was administered to mice and rats in the form of a suspension in tylose and to dogs in the form of a solution in water.

[4] = test system: rats; assay: Ulcerogenic effect in rats; type: in vivo, Chbb:THOM-rats; details: 200 mg/kg p.o.
Procedure: 200 mg/kg of substance B in 1% tylose suspension were administered perorally to 10 male and female (1:1) Chbb:THOM-rats (SPF) having an approximate body weight of 200 gm. A control group received only the suspension agent. After 4 hours all animals were killed, the stomach was dissected and inspected with regard to lesions of the mucosa.

[5] = test system: rats; assay: Effect on motility of rats (sedative or stimulating effect); type: in vivo, Chbb:THOM-rats; details: 100 mg/kg p.o.
Procedure: In analogy to the method described by Fuhrer and Feldhofen (Arzneimittel-Forschung 11, 1027, 1961) substance B was tested on 6 female Chbb:THOM-rats (SPF) having a body weight of 160-190 gm, after administration of 100 mg/kg p.o. in a suspension of 1% tylose. The motility of the rats in cages was measured for 30 minutes one hour after administration of the test compound. A control group received only tylose. The change in motility given in percent with regard to that of the control group was determined.

[6] = test system: Escherichia coli ATCC 9637; assay: Bacteriostasis, serial dilution test; type: cell-based; details: 320 μg/ml
Procedure: (§3) Substance B was tested with regard to its bacteria- and fungi-inhibiting effect by the serial dilution test and agar diffusion test.

[7] = test system: Pseudomonas aeruginosa Hbg.; assay: Bacteriostasis, serial dilution test; type: cell-based; details: 320 μg/ml
Procedure: as §3

[8] = test system: Serratia marcescens ATCC 13880; assay: Bacteriostasis, serial dilution test; type: cell-based; details: 320 μg/ml
Procedure: as §3

[9] = test system: Sc. pyogenes ATCC 8688; assay: Bacteriostasis, serial dilution test; type: cell-based; details: 320 μg/ml
Procedure: as §3

[10] = test system: Streptococcus Aronson; assay: Bacteriostasis, serial dilution test; type: cell-based; details: 320 μg/ml
Procedure: as §3

[11] = test system: Staphylococcus aureus SG 511; assay: Bacteriostasis, serial dilution test; type: cell-based; details: 320 μg/ml
Procedure: as §3

[12] = test system: Mouse; assay: Test for acute toxicity, mouse; details: for Animals which died: 10 animals
Procedure: as §2

[13] = test system: Salmonella typhimurium TA 98, TA 100, TA 1535, TA 1537 and TA 1538; assay: Test for mutagenic effects (AMES-system), all strains together; type: cell-based
Procedure: Compound B was tested according to the AMES-system [Mutation Research 31, 347-364 (1975)] for mutagenic properties. In order to show the whole spectrum of induced molecular DNA-damage (base substitutions, frame-shift mutations, deletions) the auxotrophic bacterial strains Salmonella typhimurium TA 98, TA 100, TA 1535, TA 1537 and TA 1538 were used as genetic indicators.
The tests for all microorganisms were carried out such that the effect of the test compound on a microsomal enzyme system together with the corresponding co-factors could be tested, and furthermore to determine the effect on enzyme induction. The tests were performed without an activating system and in the presence of an activating system. For the in-vitro-activation S-9 supernatants (fractions of the endoplasmatic reticulum) of normal, i.e. not pretreated rats and of rats induced by aroclor 1254 (500 mg/kg) wer used. For the S-9 induced fraction, 3 different concentrations were tested.
as §1

[14] = test system: taste testers; assay: Determination of the threshold concentration (sweet taste); type: in vivo
Procedure: Aqueous solutions having concentrations of 1:12,500, 1:25,000, 1:50,000, and 1:100,000 were prepared of test compounds A, B and C and of comparison compounds X, Y and Z, and each was evaluated at 5 taste testers according to the following scoring system: Very sweet (=3 points), medium sweet (=2 points), weakly sweet (=1 point), and not sweet (=0 point). The tests were carried out as described by H. G. Schutz and F. J. Pilgrim in Food Research 22, 206 (1957). The dilution perceptible as sweet was defined as having the concentration at which the average value of the evaluation points reached 1.0 or more.

[15] = Acid-stability in 0.1 N hydrochloric acid; type: physicochemical; details: 1% in 0.1 N hydrochloric acid, room temperature, 27 days
Procedure: For the stability test, substance B at a concentration of 1% was dissolved in 0.1 N hydrochloric acid and kept at room temperature for 27 days. […] The solid substance was furthermore tested in daylight and at 60° C. in the absence and in the presence of light for 4 weeks.

With `O=C1NS(=O)(=O)c2cccc(O)c21.[Na]` the “effect on duration of hexobarbital anesthesia (in words)” value [1] was “does not show any effect on the duration of hexobarbital anesthesia”, the Duration of anesthesia ([1]; hexobarbital 80 mg/kg i.p.) was 15.65 ± 6.32 min and the “Duration of anesthesia, % of control” value ([1]; hexobarbital 80 mg/kg i.p.) was 106%. For the same compound, the “inhibition of the microorganism growth” value [2] was “did not show an inhibition of the microorganism growth”, the Animals which died ([3]; 5 g/kg oral, 1 day) was 0 and the Animals which died ([3]; 5 g/kg oral, 7 days) was 0. The Animals which died ([3]; 5 g/kg oral, 14 days) was 0, the “deaths (in words)” value ([3]; 5 g/kg oral, during the observation time) was “no animals died” and the behavior ([3]; dog, in vivo, po) was “completely normal behavior”. The toxic symptoms ([3]; dog, in vivo, po) was “no toxic symptoms could be observed”, the “ulcerogenic effect (in words)” value [4] was “does not show any ulcerogenic effect in rats” and the “Animals having stomach lesions” value ([4]; 4 hours, N = 10) was 0. For the same compound, the “effect on motility of rats (in words)” value [5] was “does not affect the motility of the rats”, the Motility of rats ([5]; 60-90 min) was 235 ± 58 contacts/animal and the “% motility” value ([5]; 60-90 min, vs control) was 113%. For the same compound, the inhibiting effect [6] was “did not show any inhibiting effect”, the inhibiting effect [7] was “did not show any inhibiting effect” and the inhibiting effect [8] was “did not show any inhibiting effect”. For the same compound, the inhibiting effect [9] was “did not show any inhibiting effect”, the inhibiting effect [10] was “did not show any inhibiting effect” and the inhibiting effect [11] was “did not show any inhibiting effect”. For the same compound, the Animals which died ([12]; 10 g/kg oral, 1 day) was 0, the Animals which died ([12]; 10 g/kg oral, 7 days) was 0 and the Animals which died ([12]; 10 g/kg oral, 14 days) was 0. For the same compound, the “deaths (in words)” value ([12]; 10 g/kg oral, during the observation time) was “no animals died”, the behavior ([12]; mouse, in vivo, po) was “completely normal behavior” and the toxic symptoms ([12]; mouse, in vivo, po) was “no toxic symptoms could be observed”. The “effect on enzyme induction and the activating fraction upon the reversion rate” value [13] was “No effect on enzyme induction and the activating fraction upon the reversion rate was detected”, the “mutagenicity, overall” value [13] was “not mutagenic” and the “colonies counted on the test plates” value ([13]; each test strain) was “showed the normal spontaneous range for each test strain”. For the same compound, the “Average value of evaluation points” value ([14]; concentration 1:25000) was 2.6 points, the “Average value of evaluation points” value ([14]; concentration 1:50000) was 1.2 points and the “Average value of evaluation points” value ([14]; concentration 1:100000) was 0.0 points. For the same compound, the “stability in acid medium” value [15] was “No changes could be detected”.
